This is an account of results in ChEMBL document CHEMBL1140507, “Synthesis and evaluation of N-acylsulfonamide and N-acylsulfonylurea prodrugs of a prostacyclin receptor agonist” (Bioorg Med Chem, 2007).

Data set [1] can be described thus: Hydrolytic rate in cynomolgus monkey hepatic microsomes assessed as 2-(4-((5,6-diphenylpyrazin-2-yl)(isopropyl)amino)butoxy)acetic acid production per mg of protein at 10 uM. It is filed as ADME, Macaca fascicularis, Liver.
The subject of data set [2] is Liver microsomes. Briefly: Hydrolytic rate in human hepatic microsomes assessed as 2-(4-((5,6-diphenylpyrazin-2-yl)(isopropyl)amino)butoxy)acetic acid production per mg of protein at 10 uM. It is filed as ADME, Microsome.
The subject of data set [3] is Cynomolgus monkey. The experiment in a line: Tmax in cynomolgus monkey assessed as 2-(4-((5,6-diphenylpyrazin-2-yl)(isopropyl)amino)butoxy)acetic acid level at 1 mg/kg, po. More on the design: dose 1 mg/kg, route oral. It is filed as ADME, organism-based, Macaca fascicularis. The note with it: in vivo.
The subject of data set [4] is Cynomolgus monkey. Briefly: Cmax in cynomolgus monkey assessed as 2-(4-((5,6-diphenylpyrazin-2-yl)(isopropyl)amino)butoxy)acetic acid level at 1 mg/kg, po. The class given is ADME, organism-based, Macaca fascicularis. More on the design: dose 1 mg/kg, route oral. The note with it: in vivo.
Data set [5] deals with Cynomolgus monkey. The experiment in a line: Half life in cynomolgus monkey assessed as 2-(4-((5,6-diphenylpyrazin-2-yl)(isopropyl)amino)butoxy)acetic acid at 1 mg/kg, po. The class given is ADME, organism-based, Macaca fascicularis. More on the design: dose 1 mg/kg, route oral. Particulars: in vivo.
The test system of data set [6] is Cynomolgus monkey. The experiment in a line: AUC (0 to 24 hrs) in cynomolgus monkey assessed as 2-(4-((5,6-diphenylpyrazin-2-yl)(isopropyl)amino)butoxy)acetic acid at 1 mg/kg, po. It is filed as ADME, organism-based, Macaca fascicularis, Plasma. Also on record: time < 24 hr, dose 1 mg/kg, route oral. The note with it: in vivo.
The nature of data set [7]: Hydrolytic rate in cynomolgus monkey hepatic microsomes assessed as 2-(4-((5,6-diphenylpyrazin-2-yl)(isopropyl)amino)butoxy)acetic acid production in presence of 10 uM PMSF relative to control. The class given is ADME, Macaca fascicularis, Liver. More on the design: scale not given: the % may be the effect or the level left.
Data set [8] in a line: Hydrolytic rate in cynomolgus monkey hepatic microsomes assessed as 2-(4-((5,6-diphenylpyrazin-2-yl)(isopropyl)amino)butoxy)acetic acid production in presence of 100 uM PMSF relative to control. The class given is ADME, Macaca fascicularis, Liver. More on the design: scale not given: the % may be the effect or the level left.
A short description of data set [9]: Hydrolytic rate in cynomolgus monkey hepatic microsomes assessed as 2-(4-((5,6-diphenylpyrazin-2-yl)(isopropyl)amino)butoxy)acetic acid production in presence of 1000 uM PMSF relative to control. It is filed as ADME, Macaca fascicularis, Liver. Also on record: scale not given: the % may be the effect or the level left.
A further data set has as its system Plasma. The experiment in a line: Hydrolytic rate in Sprague-Dawley rat plasma assessed as 2-(4-((5,6-diphenylpyrazin-2-yl)(isopropyl)amino)butoxy)acetic acid production per mg of protein at 10 uM. It is filed as ADME, cell-free.
The nature of data set [10]: Hydrolytic rate in Beagle dog hepatic microsomes assessed as 2-(4-((5,6-diphenylpyrazin-2-yl)(isopropyl)amino)butoxy)acetic acid production per mg of protein at 10 uM. The class given is ADME, Canis lupus familiaris, Liver.
The subject of data set [11] is Liver microsomes. Briefly: Hydrolytic rate in Sprague-Dawley rat hepatic microsomes assessed as 2-(4-((5,6-diphenylpyrazin-2-yl)(isopropyl)amino)butoxy)acetic acid production per mg of protein at 10 uM. The class given is ADME, Microsome.

`CC(C)N(CCCCOCC(=O)NS(=O)(=O)c1ccccc1)c1cnc(-c2ccccc2)c(-c2ccccc2)n1`: the Activity was 0.711 nmol/min in [1] and 0.017 nmol/min in the data set with Liver microsomes [2].

In general, Tmax refers to the time from dosing to the highest level. What is called Cmax is the maximum level reached in the sampled fluid or tissue. Broadly, the AUC is concentration integrated over time. Consider `CC(C)N(CCCCOCC(=O)NS(=O)(=O)C(C)C)c1cnc(-c2ccccc2)c(-c2ccccc2)n1`, for which, in the data set with Cynomolgus monkey [3], the time of peak concentration (Tmax) was 10 h. The Cmax in the data set with Cynomolgus monkey [4] stood at 13 ng/mL. Moreover, the t1/2 with Cynomolgus monkey [5] was determined as 14.5 h. Besides, the area under the curve (AUC) in the data set with Cynomolgus monkey [6] amounted to 170 ng·h/mL. Further, the Activity is 0.152 nmol/min in [1] and 0.012 nmol/min in the data set on Liver microsomes [2].

As for `CC(C)N(CCCCOCC(=O)NS(N)(=O)=O)c1cnc(-c2ccccc2)c(-c2ccccc2)n1`, the time to peak (Tmax) in the data set with Cynomolgus monkey [3] amounted to 6 h. The peak concentration (Cmax) in the data set on Cynomolgus monkey [4] is 20 ng/mL. In addition, in the data set with Cynomolgus monkey [6], the area under the curve (AUC) was determined as 374 ng·h/mL. In addition, the Activity was 0.112 nmol/min in data set [1] and 0.03 nmol/min in the data set with Liver microsomes [2].

In the case of `CC(C)N(CCCCOCC(=O)NS(=O)(=O)N1CCOCC1)c1cnc(-c2ccccc2)c(-c2ccccc2)n1`, the figures for the Activity (in [1]; in the data set with Liver microsomes [2]) were 0.208 nmol/min and 0.015 nmol/min, respectively.

As for `CC(C)N(CCCCOCC(=O)NS(=O)(=O)C(F)(F)F)c1cnc(-c2ccccc2)c(-c2ccccc2)n1`, in the data set on Cynomolgus monkey [3], the time to peak (Tmax) stood at 4 h. In addition, the highest concentration (Cmax) with Cynomolgus monkey [4] was determined as 31 ng/mL. Moreover, in the data set on Cynomolgus monkey [5], the t1/2 was found to be 8.5 h. The exposure (AUC) in the data set on Cynomolgus monkey [6] amounted to 308 ng·h/mL. Further, the Activity came to 0.06 nmol/min in data set [1] and 0.024 nmol/min in the data set with Liver microsomes [2].

On to `CC(C)N(CCCCOCC(=O)NS(=O)(=O)c1cccs1)c1cnc(-c2ccccc2)c(-c2ccccc2)n1`, for which the Activity in [1] was 0.468 nmol/min; with Liver microsomes [2] it was 0.008 nmol/min.

On to `CC(C)N(CCCCOCC(=O)NS(C)(=O)=O)c1cnc(-c2ccccc2)c(-c2ccccc2)n1` [SELEXIPAG], for which the Activity in data set [7] amounted to 21.4%; in data set [8], 0%; in [9], 0%; in the data set with Plasma, 0.5 nmol/min; in data set [10], 0.03 nmol/min; in the data set with Liver microsomes [11], 0.09 nmol/min. In addition, the results for the Activity (in data set [1]; with Liver microsomes [2]) were 0.057 nmol/min and 0.019 nmol/min, respectively. For the same compound, the Tmax in the data set on Cynomolgus monkey [3] came to 14 h. In addition, the highest concentration (Cmax) in the data set with Cynomolgus monkey [4] was found to be 35 ng/mL. Further, in the data set with Cynomolgus monkey [5], the t1/2 is 10.7 h. Moreover, the AUC in the data set with Cynomolgus monkey [6] came out at 859 ng·h/mL.
